Calls of active or inactive are those of the source.
Tests used:
[1] = Luminescence Cell-Based Dose Response HTS to Identify Activators of Luciferase Translation or Activity in H4 […] Cells. [Related pubchem assays: 1829 (Project Summary), 1814 (Primary HTS)]; type: functional
[2] = biological target: FAD-linked sulfhydryl oxidase ALR (Homo sapiens, UniProt P55789); assay: ALR-catalysed DTT oxidation blockers – biochemical, H2O2 detection, luminescence, cherry-pick, dose response (AID 493248)
[3] = biological target: T1, Calpain-2 catalytic subunit (Sus scrofa, UniProt P43367); assay: m-calpain protease blockers, concentration series – biochemical, fluorogenic peptide substrate, dose response (AID 1420); type: functional
T1 sequence (P43367 whole entry): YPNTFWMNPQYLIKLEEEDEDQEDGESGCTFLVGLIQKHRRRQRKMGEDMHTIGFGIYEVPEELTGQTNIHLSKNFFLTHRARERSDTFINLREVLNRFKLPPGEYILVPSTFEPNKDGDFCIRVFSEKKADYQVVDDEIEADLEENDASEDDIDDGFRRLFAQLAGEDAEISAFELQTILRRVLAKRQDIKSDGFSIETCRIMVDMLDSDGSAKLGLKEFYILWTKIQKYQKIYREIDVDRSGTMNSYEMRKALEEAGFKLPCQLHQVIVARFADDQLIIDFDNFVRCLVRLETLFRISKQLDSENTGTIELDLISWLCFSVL

[4] = microbe, parasite or virus in culture; type: functional; settings: Mycobacterium tuberculosis
Genome polyprotein = Genome polyprotein (dengue virus type 2, UniProt P29990); assay: flavivirus cap methylation enzyme inhibition – biochemical, confirmation dose response, primary screen (AID 588689); type: functional
Large T antigen = Large T antigen (Simian virus 40, UniProt P03070); type: functional, Betapolyomavirus macacae;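 note: Confirmatory-stage PubChem screen for compounds that inhibit SV40 T antigen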
[5] = biological target: T2, Rac GTPase-activating protein 1 (Homo sapiens, UniProt Q9H0H5); assay: blockers of MgcRacGAP-driven Rac1 GTP hydrolysis – biochemical, ADP Hunter fluorescence, primary and confirmatory, confirmation (AID 624330); type: functional
T2 sequence (Q9H0H5 whole entry): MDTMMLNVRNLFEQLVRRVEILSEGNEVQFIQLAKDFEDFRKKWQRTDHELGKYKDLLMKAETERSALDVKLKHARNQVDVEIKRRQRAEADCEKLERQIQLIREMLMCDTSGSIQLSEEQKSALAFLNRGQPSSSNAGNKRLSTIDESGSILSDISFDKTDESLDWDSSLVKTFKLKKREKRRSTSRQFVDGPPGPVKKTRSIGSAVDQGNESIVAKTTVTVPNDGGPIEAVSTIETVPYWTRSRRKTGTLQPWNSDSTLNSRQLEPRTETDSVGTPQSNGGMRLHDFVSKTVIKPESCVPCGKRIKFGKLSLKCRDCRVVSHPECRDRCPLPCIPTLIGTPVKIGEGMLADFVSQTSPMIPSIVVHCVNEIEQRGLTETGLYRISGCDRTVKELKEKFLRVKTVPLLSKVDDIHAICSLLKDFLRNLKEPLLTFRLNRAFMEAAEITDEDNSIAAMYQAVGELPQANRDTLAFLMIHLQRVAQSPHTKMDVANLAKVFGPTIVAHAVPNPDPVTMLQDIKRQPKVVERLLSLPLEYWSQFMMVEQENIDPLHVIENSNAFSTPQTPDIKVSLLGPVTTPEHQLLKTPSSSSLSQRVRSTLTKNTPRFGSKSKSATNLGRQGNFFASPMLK

BJ [6] = assay: cells; type: functional, cell-based; settings: Homo sapiens
[7] = luciferase reporter signal suppression in cells – H4 neuroglioma cells, luminescence, dose response (AID 1990); type: functional, cell-based
[8] = Luminescence Cell-Based Dose Response HTS to Identify Inhibitors of 5'UTR Stem-Loop Driven Prion Protein mRNA Translation in H4 Neuroglioblastoma Cells. [Related pubchem assays: 1827 (Project Summary), 1813 (Primary HTS)]; type: functional
BJ [9] = assay: BJ-TERT fibroblast viability loss – cell-based, RAS-independent, luminescence, dose response (AID 1933); type: functional; settings: Homo sapiens
BJ [10] = assay: BJ-TERT-LT-ST fibroblast viability loss – cell-based, RAS-independent, luminescence, dose response (AID 1935); type: functional; settings: Homo sapiens;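 note: BJ fibroblasts immortalized with TERT plus LT and ST oncogenes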
[11] = alpha-synuclein stem-loop luciferase translation blockers – H4 neuroglioma cells, luminescence, confirmation (AID 1988); type: functional, cell-based
[12] = DRD fibroblast viability loss – cell-based, non-viral oncogenic, luminescence, dose response (AID 1934); type: functional; settings: Homo sapiens
[13] = biological target: T3, Heat shock factor protein 1 (Mus musculus, UniProt P38532); assay: decrease of HSF1-responsive luciferase luminescence – cell-based, NIH3T3, dose retest, confirmation (AID 2382); type: functional;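 note: NIH3T3 fibroblasts with HSF1-driven luciferase reporter stressed by proteasome inhibitor MG132; luminescence from HSF1-driven luciferase expression after 8 hours of MG132 stress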
T3 sequence (P38532 whole entry): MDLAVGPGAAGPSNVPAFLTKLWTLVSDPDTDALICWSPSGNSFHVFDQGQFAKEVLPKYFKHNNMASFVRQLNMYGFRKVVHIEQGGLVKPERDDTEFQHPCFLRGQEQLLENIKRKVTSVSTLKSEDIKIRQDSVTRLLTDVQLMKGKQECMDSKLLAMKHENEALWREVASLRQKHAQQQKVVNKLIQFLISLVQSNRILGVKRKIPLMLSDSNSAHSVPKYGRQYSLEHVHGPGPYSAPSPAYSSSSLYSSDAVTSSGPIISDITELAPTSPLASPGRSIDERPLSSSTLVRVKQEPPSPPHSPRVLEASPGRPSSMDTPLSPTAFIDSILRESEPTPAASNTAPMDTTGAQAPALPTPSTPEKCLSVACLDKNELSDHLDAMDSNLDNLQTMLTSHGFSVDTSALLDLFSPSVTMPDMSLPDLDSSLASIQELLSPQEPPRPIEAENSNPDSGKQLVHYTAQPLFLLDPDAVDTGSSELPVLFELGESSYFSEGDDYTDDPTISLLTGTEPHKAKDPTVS

[14] = Trypanosoma cruzi growth suppression in host cells – NIH3T3 host cells, beta-gal luminescence, confirmation (AID 2044); type: functional, cell-based;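 note: intracellular parasites grown in NIH/3T3 mouse fibroblasts as host cells; luminescent beta-galactosidase reporter signal from transgenic T. cruzi replicating inside host cells; inhibitors lower the luminescence signal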
[15] = NIH3T3 cell viability loss – ATP luminescence, mouse fibroblasts, counter-screen, dose response (AID 2010); type: functional, cell-based;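 note: cells exposed to compound for about 90 hours before reading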
[16] = biological target: Luciferin 4-monooxygenase (Photinus pyralis, UniProt P08659); assay: inhibition of purified Photinus pyralis luciferase – biochemical, luminescence, dose response (AID 1891)
Cytochrome P450 2C9 = Cytochrome P450 2C9 (Homo sapiens, UniProt P11712)
[17] = Luminescence Cell-Based Dose Confirmation HTS to Identify Inhibitors of Platelet Dense Granule Release. [Related pubchem assays: 1663 (Primary HTS), 1678 (Summary of Project)]; type: functional
INS1 = assay: INS-1E survival protection against cytokine death – cell-based, luminescence, retest, dose response (AID 449756); type: functional; settings: Rattus norvegicus;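 note: cell death triggered by IL-1 beta plus TNF-alpha plus IFN-gamma mixture; protective hits raise ATP signal compared with cytokine alone wells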
[18] = viability of uninfected HEp-2 cells – cell-based, HTS, cytotoxicity control for RSV inhibitor project, dose response (AID 2410); type: functional; settings: human respiratory syncytial virus

Sequence of FAD-linked sulfhydryl oxidase ALR (P55789 whole entry): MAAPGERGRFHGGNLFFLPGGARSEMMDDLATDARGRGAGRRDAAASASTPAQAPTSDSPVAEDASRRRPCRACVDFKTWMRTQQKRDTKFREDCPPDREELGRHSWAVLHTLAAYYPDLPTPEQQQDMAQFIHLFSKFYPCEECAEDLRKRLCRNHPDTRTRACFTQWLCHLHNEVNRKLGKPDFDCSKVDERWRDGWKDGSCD
Sequence of Genome polyprotein (P29990 2492-3391 limits assumed): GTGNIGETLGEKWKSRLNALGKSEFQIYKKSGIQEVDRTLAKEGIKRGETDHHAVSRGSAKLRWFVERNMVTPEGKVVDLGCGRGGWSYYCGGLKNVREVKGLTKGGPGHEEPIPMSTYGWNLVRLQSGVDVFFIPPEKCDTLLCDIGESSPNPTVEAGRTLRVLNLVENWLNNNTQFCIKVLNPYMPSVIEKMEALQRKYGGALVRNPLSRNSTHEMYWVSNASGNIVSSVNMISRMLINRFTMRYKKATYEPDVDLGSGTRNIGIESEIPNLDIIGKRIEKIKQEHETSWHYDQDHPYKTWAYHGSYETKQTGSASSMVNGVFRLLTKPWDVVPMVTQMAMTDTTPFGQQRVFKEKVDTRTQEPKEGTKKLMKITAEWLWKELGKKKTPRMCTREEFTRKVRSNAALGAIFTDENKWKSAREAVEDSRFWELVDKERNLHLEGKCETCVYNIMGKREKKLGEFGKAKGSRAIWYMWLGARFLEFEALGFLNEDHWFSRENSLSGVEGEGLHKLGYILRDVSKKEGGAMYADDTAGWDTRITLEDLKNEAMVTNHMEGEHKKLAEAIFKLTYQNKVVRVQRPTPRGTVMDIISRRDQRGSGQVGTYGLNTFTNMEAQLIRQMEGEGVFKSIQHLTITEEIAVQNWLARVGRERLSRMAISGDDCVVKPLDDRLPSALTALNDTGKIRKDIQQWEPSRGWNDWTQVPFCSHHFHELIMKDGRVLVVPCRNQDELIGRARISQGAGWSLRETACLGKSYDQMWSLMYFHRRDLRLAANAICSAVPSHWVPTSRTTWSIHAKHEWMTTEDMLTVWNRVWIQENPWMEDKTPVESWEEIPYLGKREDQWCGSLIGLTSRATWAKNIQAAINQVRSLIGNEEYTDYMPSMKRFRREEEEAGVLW
Sequence of Cytochrome P450 2C9 (P11712 whole entry): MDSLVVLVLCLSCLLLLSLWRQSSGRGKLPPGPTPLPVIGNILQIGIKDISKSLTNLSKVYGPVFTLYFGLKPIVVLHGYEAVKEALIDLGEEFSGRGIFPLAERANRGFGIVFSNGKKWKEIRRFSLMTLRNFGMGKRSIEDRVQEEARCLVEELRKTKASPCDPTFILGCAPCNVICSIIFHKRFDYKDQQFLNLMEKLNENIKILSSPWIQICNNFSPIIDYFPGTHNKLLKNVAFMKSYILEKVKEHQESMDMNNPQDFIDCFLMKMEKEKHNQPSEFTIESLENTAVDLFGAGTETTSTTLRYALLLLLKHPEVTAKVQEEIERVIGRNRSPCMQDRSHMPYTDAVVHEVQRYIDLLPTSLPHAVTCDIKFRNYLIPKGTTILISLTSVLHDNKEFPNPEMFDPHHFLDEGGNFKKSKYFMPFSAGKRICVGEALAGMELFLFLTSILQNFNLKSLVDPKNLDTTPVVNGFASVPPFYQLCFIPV
Sequence of Luciferin 4-monooxygenase (P08659 whole entry): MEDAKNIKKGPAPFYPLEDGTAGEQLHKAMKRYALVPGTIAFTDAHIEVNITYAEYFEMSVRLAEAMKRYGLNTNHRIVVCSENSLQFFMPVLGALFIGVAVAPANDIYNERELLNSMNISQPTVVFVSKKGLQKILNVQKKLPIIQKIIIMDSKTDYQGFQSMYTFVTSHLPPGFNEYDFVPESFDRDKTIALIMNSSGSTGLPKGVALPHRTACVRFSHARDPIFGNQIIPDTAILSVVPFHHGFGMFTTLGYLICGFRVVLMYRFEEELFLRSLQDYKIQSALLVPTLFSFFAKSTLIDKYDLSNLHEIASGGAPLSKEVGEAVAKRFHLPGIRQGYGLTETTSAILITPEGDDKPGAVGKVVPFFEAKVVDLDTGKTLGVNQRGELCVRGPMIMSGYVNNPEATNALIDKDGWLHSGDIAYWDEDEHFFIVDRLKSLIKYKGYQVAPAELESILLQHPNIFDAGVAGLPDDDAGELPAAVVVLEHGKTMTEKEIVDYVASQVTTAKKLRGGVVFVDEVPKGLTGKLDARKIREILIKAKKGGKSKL
Sequence of Large T antigen (P03070 whole entry): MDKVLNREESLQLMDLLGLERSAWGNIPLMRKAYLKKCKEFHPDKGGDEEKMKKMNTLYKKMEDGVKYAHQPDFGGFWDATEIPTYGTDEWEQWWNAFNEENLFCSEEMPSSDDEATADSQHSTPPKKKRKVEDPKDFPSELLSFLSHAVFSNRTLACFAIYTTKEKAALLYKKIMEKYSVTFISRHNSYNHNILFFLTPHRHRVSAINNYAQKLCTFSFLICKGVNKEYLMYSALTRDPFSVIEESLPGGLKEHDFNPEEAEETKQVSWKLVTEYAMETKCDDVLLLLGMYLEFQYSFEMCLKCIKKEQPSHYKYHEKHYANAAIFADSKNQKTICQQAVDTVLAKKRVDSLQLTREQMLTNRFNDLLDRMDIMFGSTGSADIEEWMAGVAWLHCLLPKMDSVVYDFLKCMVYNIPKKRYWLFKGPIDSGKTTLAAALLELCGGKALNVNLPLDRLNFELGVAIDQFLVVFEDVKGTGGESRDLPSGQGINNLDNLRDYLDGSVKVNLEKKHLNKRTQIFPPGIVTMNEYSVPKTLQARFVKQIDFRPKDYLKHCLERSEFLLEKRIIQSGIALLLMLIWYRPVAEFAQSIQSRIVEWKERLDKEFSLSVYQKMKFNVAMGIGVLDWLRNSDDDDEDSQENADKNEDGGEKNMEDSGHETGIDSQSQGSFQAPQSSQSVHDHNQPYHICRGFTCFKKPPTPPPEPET

Which results are given for `Cc1cc(N)n2ncc(-c3ccccc3)c2n1`?
EC50 [1]: 0.137 µM (active); AC50 [2]: 18.9 µM (active)

For `Cc1cc(NC(=O)c2ccc3c(c2)C(=O)N(CCC(C)C)C3=O)no1`, which IC50 [3] is on record?
The IC50 was 17.2 µM (not active).

Which CC50 [4] does the source give for `COc1ccc(-c2csc3ncnc(N4CCN(c5ccccc5OC)CC4)c23)cc1` here?
Its CC50 is > 40 µM (active).

For `COc1ccc(CC(=O)Nc2ccccc2N2CCCC2)cc1OC`, which AC50 [2] is on record?
Its AC50 is 12.6 µM (active).

Which AC50 [2] does the source give for `CC(C)c1ccc(NC(=O)Cc2c(C(=O)O)n(C)c3ccccc23)cc1` here?
The AC50 was 6.73 µM (active).

With `COc1ccc2c(c1OC)C(=O)OC2c1c(O)n(Cc2ccc(F)cc2)c(=O)[nH]c1=O` (configuration not stated) as the compound, how does the IC50 (Genome polyprotein) read?
The IC50 was 69.7 µM (active).

For `CCCN(C#N)c1nc(NCC)nc(NC(C)C)n1`, which IC50 [3] is on record?
The IC50 was > 50 µM (not active).

Which IC50 (Large T antigen) does the source give for `Cc1c(NC(=O)COC(=O)COc2ccc(Nc3ccccc3)cc2)c(=O)n(-c2ccccc2)n1C` here?
Its IC50 is 35.3 µM (active).

With `Cc1ccc(C(C2=C(O)CC(C)(C)CC2=O)C2C(=O)CC(C)(C)CC2=O)s1` (configuration not stated) as the compound, how does the IC50 [5] read?
The IC50 was 62.9 µM (active).

What about the IC50 (Genome polyprotein) of the same compound?
Its IC50 is 29.4 µM (active).

For `COc1cc(OC)cc(C(=O)c2c(C)c(C#N)c3ccccn23)c1`, which EC50 (BJ [6]) is on record?
The EC50 was 0.769 µM (active).

And the EC50 [7]?
Its EC50 is 15 µM (active).

And the EC50 [8]?
Its EC50 is > 120 µM (not active).

What about the EC50 (BJ [9]) of the same compound?
Its EC50 is 2.54 µM (active).

And the EC50 (BJ [10])?
The EC50 was 1.46 µM (inconclusive).

And the EC50 [11]?
The EC50 was 2.6 µM (active).

And the EC50 [12]?
The EC50 was 1.49 µM (active).

What does the source list for `CCOc1ccc(-c2cnc(NCc3cccc4ccccc34)n2CCOC)cc1`?
EC50 [13]: > 195 µM (not active); EC50 [14]: 0.979 µM (active); EC50 [15]: > 60 µM (not active); CC50 [4]: 12.2 µM (active)

Which EC50 [16] does the source give for `COc1ccc(CC(=O)N2CCN(c3ccc(C4=NNC(=O)CC4C)cc3)CC2)cc1` (configuration not stated) here?
The EC50 was > 112 µM (not active).

And the AC50 (Cytochrome P450 2C9)?
The AC50 was 8.91 µM (inconclusive).

What about the EC50 [17] of the same compound?
The EC50 was < 0.088 µM (active).

What about the AC50 [2] of the same compound?
Its AC50 is 20.8 µM (active).

Which results are given for `Nc1c(C(=O)O)sc2nc(-c3ccccc3)cc(-c3ccc(Cl)cc3)c12`?
EC50 [13]: > 195 µM (not active); IC50 (Genome polyprotein): 70.8 µM (active)

For `Cc1cc([N+](=O)[O-])nn1CCCC(=O)Nc1cc(Oc2ccccc2)cc([N+](=O)[O-])c1`, which IC50 [3] is on record?
The IC50 was 5.32 µM (not active).

What does the source list for `C1CCCCC1.OCCN1CCN(C2Cc3cc(Cl)ccc3Sc3ccc(Cl)cc32)CC1` (configuration not stated)?
AC50 (INS1): 13 µM (active); CC50 [18]: 13.8 µM (active)

With `CC(O)CNc1nc2ccccc2n1-c1ncnc2sc3c(c12)CCC3` (configuration not stated) as the compound, how does the CC50 [4] read?
Its CC50 is 29.6 µM (active).

Which EC50 [13] does the source give for `CCN(CCCNC(=O)CCn1c(=O)[nH]c2ccsc2c1=O)c1ccccc1` here?
The EC50 was > 195 µM (not active).

What about the IC50 [3] of the same compound?
The IC50 was < 0.4 µM (not active).

Which AC50 [2] does the source give for `CC(=O)c1ccc(NC(=O)N2CCN(c3ccc(C)cc3)C(C)C2)cc1` (configuration not stated) here?
Its AC50 is 3.56 µM (active).

With `CC1(C)CC(=O)C(C(C2=C(O)CC(C)(C)CC2=O)c2ccc(O)c([N+](=O)[O-])c2)=C(O)C1` as the compound, how does the IC50 (Genome polyprotein) read?
Its IC50 is 9.49 µM (active).

With `Cc1nc2ccc(S(=O)(=O)NCC(=O)N(C)Cc3ccccc3)cc2s1` as the compound, how does the AC50 [2] read?
Its AC50 is 1.05 µM (active).

From ChEMBL document CHEMBL1201862, “PubChem BioAssay data set” (2004)
